{"source": "patent US12414994B2", "about": "“Compositions comprising lopinavir and treatment of conditions” (DOUGLAS PHARMACEUTICALS LIMITED, priority 2019, dated 2025)", "key": {"herpesvirus": {"test_system": "herpesvirus", "details": "Gantt et al. (2011) Table 1; cited from earlier work"}, "HSV1 strain 17+": {"test_system": "HSV1 strain 17+", "experiment": "HSV1 replication assay in N-Tert keratinocytes (anti-HSV immunostaining)", "assay_type": "cell-based", "details": "for effect on HSV1 replication: pre-treatment virus incubation reduced by 2 hours, FIG. 5B; for effects on HSV1 replication: FIG. 4B", "description": "(§1) Cell Culture; Telomerase immortalised N-Tert human foreskin Keratinocyes were maintained in standard T-75 tissue culture flasks (Corning, USA) in 25 ml of Keratinocyte serum-free medium (KSFM) supplemented with L-glutamine, 0.2 ng/ml epidermal growth factors (EGF) and 25 μg/mL bovine pituitary extract (BPE) (Gibco, Invitrogen, UK). These were maintained at 37° C. in a humidified atmosphere of 5% CO2 and the medium was changed every 2 days as required. For routine sub-culture the medium was aspirated, cells washed with PBS (Gibco-Invitrogen, UK) and 2 ml of Cell Culture Grade Trypsin 0.05% solution with EDTA (Gibco-Invitrogen, UK) added to each flask which was incubated at 37° C./5% CO2 for 10 minutes. A 10 ml aliquot of KSFM plus 10% foetal bovine serum (FBS) (Gibco-Invitrogen, UK) was then added and the cells centrifuged at 6000 g for 6 minutes. The medium was aspirated and cells washed with 10 mls of PBS (Gibco Invitrogen, UK) followed by re-suspension in 10 mls of fresh KSFM and final a cell count carried out. HSV1 & 2 Replication Assays; T25 flasks (Corning, USA) were each seeded with 600,000 N-Tert cells in serum-free KSFM plus supplements and incubated at 37° C./5% CO2 until confluent (Approximately 72 hours). The medium was then aspirated and cells infected with either 25 μl aliquot of HSV2 strain HG52, 1 μl of HSV1 strain 17+ or a 5 μl aliquot of the acyclovir resistant HSV2 strain 132349 ACV-res (Public Health England, Porton Down, UK) in 0.5 ml of serum-free KSFM plus supplements for a period of 2 hours at 37° C./5% CO2. The volume of each HSV strain stock used was empirically determined as the amount required to produce pronounced cytopathic changes in infected control flasks over the time course of the experiment. A 9.5 ml aliquot of KSFM plus supplements was then added to each flask and cells infected with the HG52 or 17+ strains incubated overnight whereas cell infected with the 132349 ACV-res strain were incubated for 5 hours at 37° C./5% CO2. Stock solutions of each active pharmaceutical ingredient (API) were freshly prepared every week from dry powder (Douglas Pharna, NZ) dissolved volumetrically in DMSO at 100 mM and stored at −20° C. Appropriate final dilutions of these API stocks solutions were made in KSFM plus supplements such that the same volume of DMSO (2 μl) was added to each infected flask. Where mixed APIs were used, concentrations were calculated as w/w ratios. API treated HSV2 HG52 infected cells were then incubated for 48 hours, HSV1 17+ infected cells were incubated for 8 hours and HSV-2 132349 ACV-res infected cells were incubated for 12 hours prior to harvesting for immunostaining. A concentration of 5 μM Acyclovir (VWR International, UK) was also added as a comparator to flasks infected with HSV-2 132349 ACV-res in order to verify the acyclovir resistant nature of the strain. […] Harvesting & Immunostaining; Growth medium was decanted from each flask and placed into 15 ml universal tubes (Corning, USA) and the cells rinsed with 1 ml of 1×PBS which was pooled with the growth medium. A 1 ml aliquot of NB Cell Culture Grade Trypsin 0.05% solution with EDTA was added to each T-25 flask and cells incubated at 37° C./5% CO2 for 10 minutes. A 1 ml aliquot of FBS was added to the decanted growth medium plus PBS from the previous step and 2 ml of this was then added to each flask to inactivate the trypsin. […]"}, "[1]": {"details": "cited from earlier work"}, "[2]": {"test_system": "acyclovir resistant HSV2 strain 132349 ACV-res", "experiment": "Acyclovir resistant HSV2 replication assay in N-Tert keratinocytes", "assay_type": "cell-based", "description": "(§2) Cell Culture; Telomerase immortalised N-Tert human foreskin Keratinocyes were maintained in standard T-75 tissue culture flasks (Corning, USA) in 25 ml of Keratinocyte serum-free medium (KSFM) supplemented with L-glutamine, 0.2 ng/ml epidermal growth factors (EGF) and 25 μg/mL bovine pituitary extract (BPE) (Gibco, Invitrogen, UK). These were maintained at 37° C. in a humidified atmosphere of 5% CO2 and the medium was changed every 2 days as required. For routine sub-culture the medium was aspirated, cells washed with PBS (Gibco-Invitrogen, UK) and 2 ml of Cell Culture Grade Trypsin 0.05% solution with EDTA (Gibco-Invitrogen, UK) added to each flask which was incubated at 37° C./5% CO2 for 10 minutes. A 10 ml aliquot of KSFM plus 10% foetal bovine serum (FBS) (Gibco-Invitrogen, UK) was then added and the cells centrifuged at 6000 g for 6 minutes. The medium was aspirated and cells washed with 10 mls of PBS (Gibco Invitrogen, UK) followed by re-suspension in 10 mls of fresh KSFM and final a cell count carried out. HSV1 & 2 Replication Assays; T25 flasks (Corning, USA) were each seeded with 600,000 N-Tert cells in serum-free KSFM plus supplements and incubated at 37° C./5% CO2 until confluent (Approximately 72 hours). The medium was then aspirated and cells infected with either 25 μl aliquot of HSV2 strain HG52, 1 μl of HSV1 strain 17+ or a 5 μl aliquot of the acyclovir resistant HSV2 strain 132349 ACV-res (Public Health England, Porton Down, UK) in 0.5 ml of serum-free KSFM plus supplements for a period of 2 hours at 37° C./5% CO2. The volume of each HSV strain stock used was empirically determined as the amount required to produce pronounced cytopathic changes in infected control flasks over the time course of the experiment. A 9.5 ml aliquot of KSFM plus supplements was then added to each flask and cells infected with the HG52 or 17+ strains incubated overnight whereas cell infected with the 132349 ACV-res strain were incubated for 5 hours at 37° C./5% CO2. […] Where mixed APIs were used, concentrations were calculated as w/w ratios. […]"}, "HSV2 strain HG52": {"test_system": "HSV2 strain HG52", "experiment": "HSV2 replication assay in N-Tert keratinocytes (anti-HSV immunostaining)", "assay_type": "cell-based", "details": "for effect against HSV2 replication: FIG. 2B", "description": "as §1, with “trypsin. The trypsinised cells were then pooled with the decanted growth medium and an aliquot taken for analysis of cell viability using Via-1 cassette NC3000 cell cytometer assays (CheoMetec A/S, Denmark). The remaining cells were centrifuged at 6000 g for 5 minutes, the medium aspirated and the cells re-suspended and washed with 10 ml of PBS followed by re-centrifugation. Finally the cells were re-suspended in 70% of ice-cold ethanol, stored overnight at 4° C. and a volume containing 60,000 cells was aliquoted into 1.5 ml Eppendorf tubes and centrifuged for 5 minutes at 5000 rpm.” for “trypsin.”"}, "HSV1 17+ strain": {"test_system": "HSV1 17+ strain", "details": "Houston et al (2017) Table 2; cited from earlier work"}, "HSV-2 132349 ACV-res": {"test_system": "HSV-2 132349 ACV-res", "details": "Houston et al (2017) Table 2; cited from earlier work"}, "[3]": {"test_system": "labial or skin HSV lesions", "details": "episodic topical application, cited from earlier work"}, "[4]": {"test_system": "uninfected N-Tert keratinocytes", "experiment": "Cytotoxicity assay (Via-1 cassette viability)", "assay_type": "cell-based", "details": "human, 48 h", "description": "as §2"}}, "note": "Like-named read-outs stand apart in the source and are kept apart here."}
{"compound": "Cc1cccc(C)c1OCC(=O)N[C@@H](Cc1ccccc1)[C@@H](O)C[C@H](Cc1ccccc1)NC(=O)[C@H](C(C)C)N1CCCNC1=O", "note": "(relative stereo) [lopinavir, [1S-[1R*(R*), 3R*, 4R*]]-N-[4-[(2,6-dimethylphenoxy0acetyl]amino]-3-hydroxy-5-phenyl-1-(phenylmethyl)pentyl]tetrahydro-alpha-(1-methylethyl)-2-oxo-1(2H)-pyrimidineacetamide]", "values": [{"measurement": "effect on herpesvirus replication", "setting": "herpesvirus", "value": "ineffective"}, {"measurement": "effect on HSV1 replication", "setting": "HSV1 strain 17+; 20 μM", "value": "by far the greatest activity"}, {"measurement": "solubility in water", "setting": "[1]", "value": "virtually insoluble in water"}, {"measurement": "number of virus positive cells", "setting": "[2]; 10 μM, FIG. 6B (DMSO control 50%)", "value": 10, "unit": "%"}, {"measurement": "number of virus positive cells", "setting": "[2]; 20 μM, FIG. 6B (DMSO control 50%)", "value": 5, "unit": "%"}, {"measurement": "effect against HSV2 replication compared with nelfinavir", "setting": "HSV2 strain HG52; 20 μM", "value": "more effective against HSV2 replication than either 2 or 5 μM nelfinavir"}, {"measurement": "HSV2 positive cells (anti-HSV antibody immunostaining images)", "setting": "HSV2 strain HG52; 20 μM, 48 hours, FIG. 1B", "value": "Very few HSV2 positive cells"}, {"measurement": "cytopathic effects of HSV2 infection (phase contrast morphology)", "setting": "HSV2 strain HG52; 20 μM, 48 hours, N-Tert keratinocytes, FIG. 1A", "value": "virtually no cytopathic effects"}, {"measurement": "percentage of virus positive cells (quantitative analysis of immune staining)", "setting": "HSV2 strain HG52; 20 μM, FIG. 1C", "value": "marked reduction"}]}
{"compound": "CC(C)c1nc(CN(C)C(=O)N[C@H](C(=O)N[C@@H](Cc2ccccc2)C[C@H](O)[C@H](Cc2ccccc2)NC(=O)OCc2cncs2)C(C)C)cs1", "note": "(relative stereo) [ritonavir, 10-Hydroxy-2-methyl-5-(1-methylethyl)-1-[2-(1-methylethyl)-4-thiazolyl]-3,6-dioxo-8,11bis(phenylmethyl)-2,4,7,12-tetraazatridecan-13-oic acid, 5-thiazolylmethylester, [5S-(5R*,8R*,10R8,11R*)]]", "values": [{"measurement": "effect on herpesvirus replication", "setting": "herpesvirus", "value": "ineffective"}]}
{"compound": "Nc1nc2c(ncn2COCCO)c(=O)[nH]1", "note": "[Acyclovir, acyclovir]", "values": [{"measurement": "concentration that proved very effective", "setting": "HSV1 17+ strain", "value": "< 0.8", "unit": "µM"}, {"measurement": "concentration required for toxicity against this strain", "setting": "HSV-2 132349 ACV-res", "value": "> 100", "unit": "µM"}, {"measurement": "improvement of healing times", "setting": "[3]; 3-5% acyclovir cream", "value": "approximately 10%"}, {"measurement": "number of virus positive cells", "setting": "[2]; Acyclovir, FIG. 6B", "value": "did not, as expected reduce the number of virus positive cells"}]}
{"compound": "Cc1c(O)cccc1C(=O)N[C@@H](CSc1ccccc1)[C@H](O)CN1C[C@H]2CCCC[C@H]2C[C@H]1C(=O)NC(C)(C)C", "note": "[nelfinavir]", "values": [{"measurement": "concentrations with significant toxic effects on eukaryotic cells", "setting": "[4]", "value": "above 2 μM"}, {"measurement": "cell viability", "setting": "[4]; 10 μM", "value": "< 60", "unit": "%"}, {"measurement": "cell viability", "setting": "[4]; 20 μM", "value": "about 40%"}, {"measurement": "effect on herpesvirus replication", "setting": "herpesvirus", "value": "inhibitory effect on viruses"}, {"measurement": "effects on HSV1 replication", "setting": "HSV1 strain 17+; 2 μM", "value": "very modest effects"}, {"measurement": "effect on HSV1 replication", "setting": "HSV1 strain 17+; 2 μM", "value": "no discernible effect"}, {"measurement": "effects on HSV1 replication", "setting": "HSV1 strain 17+; 10 μM", "value": "very modest effects"}, {"measurement": "effect on HSV1 replication", "setting": "HSV1 strain 17+; 10 μM", "value": "no discernible effect"}, {"measurement": "effect against HSV2 replication", "setting": "HSV2 strain HG52; 2 μM", "value": "less effective against HSV2 replication than 10 μM nelfinavir"}, {"measurement": "effect against HSV2 replication", "setting": "HSV2 strain HG52; 5 μM", "value": "less effective against HSV2 replication than 10 μM nelfinavir"}, {"measurement": "effect against HSV2 replication", "setting": "HSV2 strain HG52; 10 μM", "value": "as effective as 20 μM 12:1 Lop/Rit"}]}
{"compound": "Nc1nc2c(ncn2CCC(CO)CO)c(=O)[nH]1", "note": "[penciclovir]", "values": [{"measurement": "improvement of healing times", "setting": "[3]; 1% penciclovir cream", "value": "approximately 10%"}]}
